Results on one molecule are retold here after PMC8235223, “Four New Chromones from the Endophytic Fungus Phomopsis asparagi DHS-48 Isolated from the Chinese Mangrove Plant Rhizophora mangle” (Marine Drugs, 2021).

What all share (assay type): cell-based
Data set [1] can be described thus: Cell viability (cytotoxicity) CCK-8 assay on murine splenocytes. The note with it: female, BALB/c, mouse, murine splenocytes (spleen lymphocytes), CCK-8 method, mean of n = 3. Here is the method: (§1) Female BALB/c mice (6–8 weeks old, 20 ± 2 g) were purchased from the Department of Laboratory Animal Science (Hainan Medicinal University, China). The mice were sacrificed by cervical dislocation, and their spleens were collected in complete RPMI 1640 medium, which was minced with surgical scissors in a germ-free condition. The suspension was then filtered through a sterile sieve mesh to obtain the single cell suspension. After centrifugation (1000 rpm at 4 °C for 5 min), the resulting cells were treated with erythrocytes lysis buffer, followed by washing twice with cold phosphate-buffered saline (PBS). Then, the cells were adjusted to the concentration of 5 × 10^6 cells/mL and resuspended in RPMI 1640 medium supplemented with 10% heat-inactivated fetal bovine serum (FBS).
Cell viability of compounds 1–8 were measured using the tetrazolium salt-based CCK-8 assay according to a previously described protocol with some modifications. Spleen lymphocytes were seeded into 96-well plates at a density of 2 × 10^6 cells/mL onto 96-well plates containing 100 μL of RPMI1640 complete medium (triplicate wells). Then, the cells were treated with 100 μL of various concentrations (3 μg/mL, 6 μg/mL, 12 μg/mL, 25 μg/mL, 50 μg/mL) of isolated compounds or cyclosporine (CsA) at 37 °C with a 5% CO2 incubator for 44 h. […] The optical density was measured at 450 nm on a microplate reader.
Background: Tetrazolium dyes change colour on reduction, which living cells bring about.

Data set [2] has as its system ConA-induced T murine splenic lymphocytes. The data set is described as follows: ConA-induced T-cell proliferation, immunosuppressive assay (CCK-8). Particulars: Mus musculus, Splenic lymphocyte; ConA-induced murine splenic T lymphocytes in vitro, n = 3. Here is the method: as §1
(§2) Compounds 1–8 were evaluated for immunosuppressive activity against the proliferation of concanavalin A (ConA)-induced T and lipopolysaccharide (LPS)-induced B murine splenic lymphocyte in vitro using a CCK-8 method according to previously reported methods. Cyclosporine A was used as a positive control.

The subject of data set [3] is LPS-induced B murine splenic lymphocytes. The data set is described as follows: LPS-induced B-cell proliferation, immunosuppressive assay (CCK-8). The note with it: Mus musculus, Splenic lymphocyte; LPS-induced murine splenic B lymphocytes in vitro, n = 3. Here is the method:
as §1, §2

Consider `COC(=O)c1cc(OC)cc2oc3c(c(=O)c12)COC(C)(O)C3` (stereo not drawn) [Compound 5, Diaporchromone A], for which, in data set [1], the IC50 – broadly, the concentration that gives 50% inhibition – at 44 h came to 47 µM. The IC50 in data set [2] amounted to 34 µM; in data set [3], 117 µM.
